Measurements published in US9234006B2, “Compounds” (Novacta Biosystems Limited, priority 2011, dated 2016).
Structures can show the parent of a compound that is named as a salt. Where a SMILES comes first, the peptide text is derived from it. Bridges are numbered along the chain shown (N, C = ends). [ ]: non-standard residue; d: D form. The star is where a group is joined. ξ: configuration not given here. Thr(3ξ) = CC(O)[C@H](N)C(=O)O; Dab = NCC[C@H](N)C(=O)O; Aoc = NCCCCCCCC(=O)O; X2 = NC1CCCC1C(=O)*; Ava = NCCCCC(=O)O; βAla = NCCC(=O)O

Assays:
[1] = tested on: E. coli ATCC25922; assay: MIC susceptibility testing, broth microdilution in CaMHB; assay type: cell-based, Escherichia coli
Description: (§1) To evaluate the potency and spectrum of the compounds, susceptibility testing was performed against four strains of each of the four Gram negative pathogens, Escherichia coli, Pseudomonas aeruginosa, Klebsiella pneumoniae and Acinetobacter baumannii.
(§2) The day before testing, 3 to 4 colonies were picked from fresh Mueller-Hinton Agar (MHA) plate and transferred into 10 mL of Cation adjusted MHB (CaMHB). Cultures were incubated at 37° C. 250 rpm for 18-20 hours before being diluted 100-fold in fresh CaMHB. The subcultures were grown further until the OD600 reached 0.2-0.3 corresponding to […]. The actively growing cultures were diluted 100-fold in fresh medium and used for the inoculum.
(§3) The assays were performed in duplicate.
(§4) Data was obtained under similar conditions to Table 4 except that different batches of cation-adjusted Muller-Hinton broth were used. The MIC values for these compounds are compared with those values obtained for Polymyxin B, Colistin Sulphate, CB-182,804 and NAB739 (as the TFA salt). CB-182,804 is a polymyxin decapeptide derivative with an aryl urea substituent at the N-terminus, which has been claimed to have lower toxicity than Polymyxin B (compound 5 in WO 2010/075416. See page 37). NAB739 has been described previously by Vaara et al.

[2] = tested on: E. coli ATCC700928; assay: as above; assay type: cell-based, Escherichia coli
Description: as §1, §2, §3, §4

[3] = tested on: E. coli NCTC12900; assay: as above; assay type: cell-based, Escherichia coli
Description: as §1, §2, §3, §4

[4] = tested on: E. coli NCTC9001; assay: as above; assay type: cell-based, Escherichia coli
Description: as §1, §2, §3, §4

[5] = tested on: P. aeruginosa ATCC 9721; assay: as above; assay type: cell-based, Pseudomonas aeruginosa
Description: as §1, §2, §3, §4

[6] = tested on: P. aeruginosa ATCC10145; assay: as above; assay type: cell-based, Pseudomonas aeruginosa
Description: as §1, §2, §3, §4

[7] = tested on: P. aeruginosa ATCC27853; assay: as above; assay type: cell-based, Pseudomonas aeruginosa
Description: as §1, §2, §3, §4

[8] = tested on: P. aeruginosa ATCCCRM-9027; assay: as above; assay type: cell-based, Pseudomonas aeruginosa
Description: as §1, §2, §3, §4

[9] = tested on: K. pneumoniae ATCC 4352; assay: as above; assay type: cell-based, Klebsiella pneumoniae
Description: as §1, §2, §3, §4

[10] = tested on: K. pneumoniae ATCCBAA-1706; assay: as above; assay type: cell-based, Klebsiella pneumoniae
Description: as §1, §2, §3, §4

[11] = tested on: K. pneumoniae NCTC7427; assay: as above; assay type: cell-based, Klebsiella pneumoniae
Description: as §1, §2, §3, §4

[12] = tested on: K. pneumoniae NCTC8172; assay: as above; assay type: cell-based, Klebsiella pneumoniae
Description: as §1, §2, §3, §4

[13] = tested on: A. baumannii ATCC19606; assay: as above; assay type: cell-based, Acinetobacter baumannii
Description: as §1, §2, §3, §4

[14] = tested on: A. baumannii ATCCBAA-747; assay: as above; assay type: cell-based, Acinetobacter baumannii
Description: as §1, §2, §3, §4

[15] = tested on: A. baumannii NCTC13423; assay: as above; assay type: cell-based, Acinetobacter baumannii
Description: as §1, §2, §3, §4

[16] = tested on: A. baumannii NCTC7844; assay: as above; assay type: cell-based, Acinetobacter baumannii
Description: as §1, §2, §3, §4

[17] = Pharmacokinetic and urinary clearance studies in rats; assay type: in vivo; settings: male, Sprague Dawley, rat, in vivo, iv, 1 mg/kg
Description: Drug solutions were prepared at 4 mg/mL in Normal Saline and the pH adjusted to 6-7 by adding the appropriate volume of 0.1 M H2SO4 or 4.2% NaHCO3. The solutions were filter-sterilized and stored at −80° C. before use. On the day of the experiment, drug solutions were diluted to 1 mg/mL with sterile Normal Saline.
Groups of 3 male Sprague Dawley rats were acclimatised for a minimum of 4 days before the study. Rats were anesthetized using isofluorane and a cannula was inserted into the jugular vein. One day after surgery, rats were dosed with an intravenous bolus injection of the solution at 1 mg/kg through the cannula, followed by washing with Normal Saline. Blood was collected manually through the cannula prior to administration of the compound and at 0.08, 0.25, 0.5, 1, 3, 6, 8 and 24 h thereafter. Plasma was harvested by centrifugation immediately after blood collection. Twenty-four hour urine samples were collected prior to and after administration of the compound in 0-4 h, 4-6 h, and 6-24 h intervals. Plasma and urine samples were frozen at −20° C.
Determination of the plasma and urine concentrations of the drug was performed by Liquid Chromatography Mass Spectrometry (LC-MS/MS). Before analysis the plasma and urine samples were prepared as follows. Plasma samples were thawed on the day of analysis and mixed with 3 volumes of acetonitrile containing 0.1% (v/v) formic acid and 100 ng/mL of internal standard. After centrifugation, supernatants were transferred to a 96-well plate and diluted 1:1 with water ready for analysis by LC-MS/MS. Urine samples were purified by solid-phase extraction (SPE) on Oasis HLB cartridges (Waters, UK) eluting with 100% methanol. An aliquot was transferred to a 96 well plate and diluted 1:1 with water before addition of internal standard solution, ready for analysis by LC-MS/MS.
The pharmacokinetic parameters were determined by non-compartmental analysis using WinNonLin v5.3. The urinary recovery was recorded as the percentage of intact drug recovered in the urine for the first 24 h after injection.

[18] = P. aeruginosa ATCC 9721, Table 4
[19] = P. aeruginosa ATCCCRM-9027, Table 4
[20] = K. pneumoniae ATCC 4352, Table 4
[21] = Table 4A, different batches of cation-adjusted Muller-Hinton broth

| SMILES | MIC ([1]; Table 4) [micrograms/mL] | MIC ([2]; Table 4) [micrograms/mL] | MIC ([3]; Table 4) [micrograms/mL] | MIC ([4]; Table 4) [micrograms/mL] | MIC [5, 18] [micrograms/mL] | MIC ([6]; Table 4) [micrograms/mL] | MIC ([7]; Table 4) [micrograms/mL] | MIC [8, 19] [micrograms/mL] | MIC [9, 20] [micrograms/mL] | MIC ([10]; Table 4) [micrograms/mL] | MIC ([11]; Table 4) [micrograms/mL] | MIC ([12]; Table 4) [micrograms/mL] | MIC ([13]; Table 4) [micrograms/mL] | MIC ([14]; Table 4) [micrograms/mL] | MIC ([15]; Table 4) [micrograms/mL] | MIC ([16]; Table 4) [micrograms/mL] | further results |
| --- | --- | --- | --- | --- | --- | --- | --- | --- | --- | --- | --- | --- | --- | --- | --- | --- | --- |
| CC(C)C[C@@H]1NC(=O)[C@@H](Cc2ccccc2)NC(=O)[C@H](CCN)NC(=O)[C@@H](NC(=O)[C@H](CCN)NC(=O)[C@@H](NC(=O)CN)C(C)O)CCNC(=O)[C@H](C(C)O)NC(=O)[C@H](CCN)NC(=O)[C@H](CCN)NC1=O (stereo partly shown) [Example 3, 2-Aminoethanoyl Polymyxin B Nonapeptide, Sulphate Salt] (H-G[Thr(3ξ)][Dab][Dab][Dab][dF]L[Dab][Dab][Thr(3ξ)]; lactam 4-C) | 2 | 4 | 8 | 4 | 0.125 | 0.25 | 0.5 | 0.125 | 1 | 16 | 0.5 | >32 | 2 | >32 | 16 | 16 |  |
| CC(C)C[C@@H]1NC(=O)[C@@H](Cc2ccccc2)NC(=O)[C@H](CCN)NC(=O)[C@@H](NC(=O)[C@H](CCN)NC(=O)[C@@H](NC(=O)CCN)C(C)O)CCNC(=O)[C@H](C(C)O)NC(=O)[C@H](CCN)NC(=O)[C@H](CCN)NC1=O (stereo partly shown) [Example 4, 3-Aminopropanoyl Polymyxin B Nonapeptide, Sulphate Salt] (H-[βAla][Thr(3ξ)][Dab][Dab][Dab][dF]L[Dab][Dab][Thr(3ξ)]; lactam 4-C) | 2 | 0.06 | 1 | 0.25 | 0.25 | 0.5 | 0.125 | 0.25 | 0.125 | 0.25 | 0.06 | 2 | 1 | 1 | 1 | 4 | AUC(0-inf) [17]: 2030 ng·h/mL; Cmax [17]: 2520 ng/mL; Vd [17]: 0.69 L/kg; clearance [17]: 8.2 mL/min/kg; half-life [17]: 1.33 h |
| CC(C)C[C@@H]1NC(=O)[C@@H](Cc2ccccc2)NC(=O)[C@H](CCN)NC(=O)[C@@H](NC(=O)[C@H](CCN)NC(=O)[C@@H](NC(=O)C2CCCC2N)C(C)O)CCNC(=O)[C@H](C(C)O)NC(=O)[C@H](CCN)NC(=O)[C@H](CCN)NC1=O (stereo partly drawn) [Example 11, (1R,S/2R,S)-2-Aminocyclopentanecarbonyl Polymyxin B Nonapeptide, Sulphate Salt] (X2-[Thr(3ξ)][Dab][Dab][Dab][dF]L[Dab][Dab][Thr(3ξ)]; lactam 3-C) | 2 | 0.125 | 2 | 0.5 | 0.25 | 0.25 | 0.125 | 0.125 | 0.5 | 0.25 | 0.25 | 2 | 2 | 1 | 0.5 | 4 |  |
| CC(C)C[C@@H]1NC(=O)[C@@H](Cc2ccccc2)NC(=O)[C@H](CCN)NC(=O)[C@@H](NC(=O)[C@H](CCN)NC(=O)[C@@H](NC(=O)CCCCN)C(C)O)CCNC(=O)[C@H](C(C)O)NC(=O)[C@H](CCN)NC(=O)[C@H](CCN)NC1=O (stereo partly shown) [Example 15, 5-Aminopentanoyl polymyxin B nonapeptide] (H-[Ava][Thr(3ξ)][Dab][Dab][Dab][dF]L[Dab][Dab][Thr(3ξ)]; lactam 4-C) |  |  |  |  |  |  |  |  |  |  |  |  |  |  |  |  | MIC [1, 21]: 2 micrograms/mL; MIC [2, 21]: 1 micrograms/mL; MIC [3, 21]: 2 micrograms/mL; MIC [4, 21]: 2 micrograms/mL; MIC ([5]; P. aeruginosa ATCC9721, Table 4A, different batches of cation-adjusted Muller-Hinton broth): 0.125 micrograms/mL; MIC [6, 21]: 1 micrograms/mL; MIC [7, 21]: 0.25 micrograms/mL; MIC ([8]; P. aeruginosa AATCCRM 9027, Table 4A, different batches of cation-adjusted Muller-Hinton broth): 0.125 micrograms/mL; MIC ([9]; K. pneumoniae ATCC4352, Table 4A, different batches of cation-adjusted Muller-Hinton broth): 0.5 micrograms/mL; MIC [10, 21]: 0.5 micrograms/mL; MIC [11, 21]: 0.25 micrograms/mL; MIC [12, 21]: 4 micrograms/mL; MIC [13, 21]: 1 micrograms/mL; MIC [14, 21]: 8 micrograms/mL; MIC [15, 21]: 4 micrograms/mL; MIC [16, 21]: 8 micrograms/mL |
| CC(C)C[C@@H]1NC(=O)[C@@H](Cc2ccccc2)NC(=O)[C@H](CCN)NC(=O)[C@@H](NC(=O)[C@H](CCN)NC(=O)[C@@H](NC(=O)CCCCCCCN)C(C)O)CCNC(=O)[C@H](C(C)O)NC(=O)[C@H](CCN)NC(=O)[C@H](CCN)NC1=O (stereo partly shown) [Example 9, 8-Aminooctanoyl Polymyxin B Nonapeptide, Sulphate Salt] (H-[Aoc][Thr(3ξ)][Dab][Dab][Dab][dF]L[Dab][Dab][Thr(3ξ)]; lactam 4-C) | 2 | 1 | 1 | 2 | 0.5 | 2 | 0.5 | 0.5 | 0.5 | 0.5 | 0.5 | >32 | 16 | >32 | >32 | >32 |  |
